# Patent USRE47475E1, “Selective agents for pain suppression” (WiSys Technology Foundation, Inc., priority 2002, dated 2019)
# Like-named read-outs stand apart in the source and are kept apart here.
# Assays:
# [1] = test system: Formalin Pain (mouse, i.p.); assay: T22 formalin test (chemically induced pain); assay type: in vivo; conditions: for protection at the acute phase of chemically induced pain: formalin test; for Change (% of Control) ± SEM, T22 Formalin Pain, Acute / Change (% of Control) ± SEM, T22 Formalin Pain, inflammatory: mouse, i.p., dose 16 (HZ-166), 10 (JY-XHE-053), 1 (XLI-JY-DMH) mg/kg; for protection at the acute phase of chemically induced pain / Change (% of Control) ± SEM, T22 Formalin Pain, Acute: acute phase; for Change (% of Control) ± SEM, T22 Formalin Pain, inflammatory: inflammatory phase
# Experimental: This elicits a distinct bi-phasic behavioral profile in response to the formalin injection characterized by licking of the affected paw, and the number of licks is measured as a proxy for perceived pain. The first (acute) phase is thought to correspond to the direct stimulation of peripheral fibers while the second (inflammatory) phase is caused by the release of inflammatory mediators from the damaged tissue and nerve endings. Thus, this model is ideally suited for efficacy of an investigational AED against the acute and chronic hyper-responsive neuronal discharges following activation of peripheral nerve fibers.
# The results of the formalin test are given both as raw data (“Response”) and in an aggregate, analyzed form (“Analysis”). In the Response section, each Trial involves sixteen animals, eight controls given an i.p. injection of vehicle and eight given the compound at a specified dose. Thus, for multiple doses of the compound, there will also be multiple control groups. The data recorded for each animal is the amount of time(s) spent licking the affected hind paw in a two minute period. These two minute periods occur at five minute intervals and continue for 45 minutes. […] From this plot, we can then determine the area under the curve (AUC) for each animal during both the acute and inflammatory stages. The AUC for each phase is shown in the analysis section of the data sheet for both control and drug-treated animals The AUC for each drug-treated animal is compared to the average result from the control group, yielding an average percent of control (reported with the SEM and p value).
# [2] = test system: GABAA receptors of superficial dorsal horn neurons; assay: whole-cell patch-clamp of GABA-induced currents in spinal cord slices; assay type: cell-based, mice; conditions: diazepam 1 μM
# Experimental: Electrophysiology of Spinal Cord Slices. […] GABAergic membrane currents are recorded from superficial dorsal horn neurons (laminae I and II) as described previously. […] GABA-induced currents are recorded from capsaicin sensitive DRG neurons 3-30 h after plating. Whole-cell patch-clamp recordings are performed from neurons identified under visual control using the infrared gradient contrast technique coupled to a video microscopy system. In both preparations, GABA (1 mM) is applied to the some of the recorded neuron via a glass pipette by short (10 ms) electronically controlled puffer applications at a frequency of 0.07 Hz.
# Spinal cord GABAA receptors: Whole-cell patch-clamp electrophysiology recordings are performed in spinal cord slices of GABAA receptor mutant mice and of corresponding wt mice. […] GABA-induced membrane currents are evoked by external application of GABA (3 mM) to neurons located in the superficial layers (lamina I and II) of the spinal cord dorsal horn.
# rhesus monkeys = assay: conflict model of anxiolytic activity which also measures sedation; assay type: in vivo
# Experimental: The data in FIGS. 21A-21F reflect the ability of the compounds or drugs to exert an anxioyic effect in rhesus monkeys (J. Rowlett, J. M. Cook et al., unpublished results) when given intravenously in propylene glycol/water solution. This is the conflict model of anxiolytic activity which also measures sedation. […] In FIG. 21B, SH-053-2′F (JY-XHE-053) is anxiolytic at a dose of greater than 0.13 mg/kg, but exerts only some slight sedation at doses greater than 1.2 mg/kg (responses decrease). In FIG. 21C it is clear the S-enantiomer of SH-053-2′F—S—CH3 is anxiolytic with no sedation up to 10-18 mg/kg, which is the highest dose tested.
# [3] = target: T1, GABAA/α1 (α1β3γ2 GABAA receptor) (Homo sapiens, UniProt P14867+P18507); assay: competitive binding assay with [3H]flunitrazepam
# T1 construct: expressed in transfected cells
# Experimental: (§1) Membranes were harvested with a Brandel cell harvester followed by three ice-cold washes onto polyethyleneimine-pretreated (0.3%) Whatman GF/C filters. Filters were dried overnight and then soaked in Ecoscint, a liquid scintillation cocktail (National Diagnostics; Atlanta, Ga.). Bound radioactivity was quantified by liquid scintillation counting. Membrane protein concentrations were determined using an assay kit from Bio-Rad (Hercules, Calif.) with bovine serum albumin as the standard.
# as §1, with “The GABAA subunit selectivity of several compounds prepared as described above were determined using competitive binding assays. […] Membranes” for “Membranes”
# [4] = target: T2, GABAA/α3 (α3β3γ2 GABAA receptor) (Homo sapiens, UniProt P18507+P34903); assay: competitive binding assay with [3H]flunitrazepam
# T2 construct: expressed in transfected cells
# Experimental: as §1
# as §1, with “The GABAA subunit selectivity of several compounds prepared as described above were determined using competitive binding assays. […] Membranes” for “Membranes”
# [5] = target: T3, GABAA/α6 (α6β3γ2 GABAA receptor) (Homo sapiens, UniProt P18507+Q16445); assay: competitive binding assay with [3H]flunitrazepam
# T3 construct: expressed in transfected cells
# Experimental: as §1
# as §1, with “The GABAA subunit selectivity of several compounds prepared as described above were determined using competitive binding assays. […] Membranes” for “Membranes”
# [6] = target: T4, GABAA/α2 (α2β3γ2 GABAA receptor) (Homo sapiens, UniProt P18507+P47869); assay: competitive binding assay with [3H]flunitrazepam
# T4 construct: expressed in transfected cells
# Experimental: as §1
# as §1, with “The GABAA subunit selectivity of several compounds prepared as described above were determined using competitive binding assays. […] Membranes” for “Membranes”
# [7] = target: T5, GABAA/α5 (α5β3γ2 GABAA receptor) (Homo sapiens, UniProt P18507+P31644); assay: competitive binding assay with [3H]flunitrazepam
# T5 construct: expressed in transfected cells
# Experimental: as §1
# as §1, with “The GABAA subunit selectivity of several compounds prepared as described above were determined using competitive binding assays. […] Membranes” for “Membranes”
# [8] = test system: Sciatic Ligation neuropathic pain; assay: T23 partial ligation of the sciatic nerve (mechanical allodynia); assay type: in vivo, rats; conditions: for Change (% of Control) ± SEM, T23 Sciatic Ligation / Significance, T23 Sciatic Ligation: dose 35.5 (HZ-166), 18 (JY-XHE-053), 1 (XLI-JY-DMH) mg/kg, TPE 2 hr
# Experimental: Neuropathic pain. The pro- or antinociceptive effects of the compounds of the present invention are analyzed in two manners. […] Sterile technique will be used throughout the surgery. The upper thigh will be shaved and wiped off with ethanol and betadine. A small incision will then be made in the skin. The underlying muscle of the upper thigh will be separated and the sciatic nerve exposed. The nerve is separated from the surrounding connective tissue and slightly elevated by a pair of fine, curved forceps. Approximately ⅓ to ½ of the nerve is tied off by passing a needle (7.0) and nylon suture through the nerve. The muscle and skin incision are closed off separately with 5.0 suture and the animals kept warm until they have recovered from the anesthesia. This procedure is routinely done on the right side (ipsilateral) while a sham surgery is performed on the left hind leg (contralateral). The latter involves a similar procedure with the exception that the sciatic nerve on this side is only exposed. The rats will be closely monitored daily for the development of infection or untoward effects of the surgery in which case the animals will be immediately euthanized
# After an appropriate time for recovery (7 days) the animals will be tested for the development of mechanical allodynia (abnormal response to a non-noxious stimulus). The animals are each put in a bottomless plexiglass box placed on a wire mesh (¼″) platform. After 30-60 minutes in which to acclimate, a baseline mechanical sensitivity is determined. This procedure is done by applying a series of calibrated Von Frey fibres perpendicularly to the plantar surface of each hind paw and holding it there for about 6 secs with enough force to slightly bend the fibre. After a positive response (withdrawal of the foot) is noted a weaker fibre is applied. This is repeated until a 50% threshold for withdrawal can be determined
# The allodynic threshold is then redetermined after intraperitoneal administration of an investigational AED. Testing will be conducted at the time-to-peak effect of the AED as determined in the acute seizure model.
# [9] = test system: neuropathic pain after CCI of the sciatic nerve; assay: chronic constriction injury (CCI) model, mechanical sensitization (von Frey filaments); assay type: in vivo, mice; conditions: for analgesic effects in the chronic constriction injury model of neuropathic pain: mouse, in vivo
# Experimental: In addition, the pro- or antinociceptive effects of the compounds of the present invention are analyzed in the chronic constriction injury (CCI) model. The GABAA receptor subunit selective test compounds of the present invention are analysed in the CCI model in 7-8-week-old C57BL/6 mice. See Bennett, G. J. & Xie, Y. K. A peripheral mononeuropathy in rat that produces disorders of pain sensation like those seen in man. […] Seven to eight week old mice are anesthetized with isofluran. Unilateral constriction injury of the left sciatic nerve just proximal to the trifurcation is performed with three loose ligatures. In sham-operated animals the sciatic nerve is exposed and the connective tissue is freed, but no ligatures are applied. […] Heat hyperalgesia, cold allodynia and mechanical sensitization are assessed 7-9 days after surgery. Mechanical sensitivity is assessed with electronic von Frey filaments (IITC).
# Pain studies—Neuropathic pain: HZ166 and gabapentin were analyzed in the chronic constriction injury (CCI) model. Unilateral constriction injury of the left sciatic nerve just proximal to the trifurcation was performed as described previously (Bennett and Xie, 1988). Anesthesia was induced and maintained by 2% isoflurane, combined with oxygen (30%). The sciatic nerve was exposed at the mid-thigh level proximal to the sciatic trifurcation by blunt dissection through the biceps femoris muscle. […] of nerve were freed of adhering tissue and three chromic gut ligatures (4/0) (Ethicon) were loosely put around the nerve with about 1 mm spacing. The ligatures were tied until they elicited a brief twitch in the hindlimb. The surgical wound was closed in layers. Heat hyperalgesia and mechanical sensitization were assessed 7-16 days after surgery.
# Pain Studies—Mechanical sensitization: Mechanical sensitivity was assessed with dynamic von Frey filaments (IITC, Woodland Hills, Calif.). 4-5 measurements were made for each time point and animal and averaged. Measurements of paw withdrawal thresholds of the injured paw and of the contralateral paw were made alternately.
# Statistical Analysis: For all different doses and vehicle, baseline paw withdrawal thresholds/latencies on day 7 after nerve ligation or on day 2 after zymosan A injection were subtracted from all later withdrawal thresholds and the area under the curve (AUC) was calculated. Drug effects were expressed as percent maximum possible effect (MPE) calculated from comparisons of paw withdrawal latencies or thresholds obtained prior to surgery or inflammation and before and after drug treatment. […] Unless otherwise indicated, statistical comparisons were made with one-way analysis of variance (ANOVA) followed by Scheffe's post hoc test. P values<0.05 were considered significant.
# neuropathic pain = conditions: Knabl et al., 2008, cited from earlier work; for analgesic effect after repeated administration (tolerance): once per day for nine days
# [10] = Binding Affinity at GABAA/α1, Table 3
# [11] = Binding Affinity at GABAA/α3, Table 3
# [12] = Binding Affinity at GABAA/α2, Table 3
# [13] = Binding Affinity at GABAA/α5, Table 3
# [14] = Table 3, read-out: Binding Affinity at GABAA/α1
# [15] = Table 3, read-out: Binding Affinity at GABAA/α3
# [16] = Table 3, read-out: Binding Affinity at GABAA/α2
# [17] = Table 3, read-out: Binding Affinity at GABAA/α5
structure (smiles),measurement,setting,value
"CN1C(=O)CN=C(c2ccccc2)c2cc(Cl)ccc21 [Diazepam, diazepam]",level of pain response,[1]; mouse formalin test and model of sciatic nerve ligation,strongly reduced
same,potentiation of GABA induced currents,"[2]; wild-type mice, mean±SEM, n=11",150.1±7.54%
same,potentiation of GABA induced currents,[2]; α1 mutant mice,165±22.3%
same,potentiation of GABA induced currents,[2]; α2 mutant mice,106.9±3.6%
same,potentiation of GABA induced currents,[2]; α3 mutant mice,102.5±6.6%
same,potentiation of GABA induced currents,[2]; α5 mutant mice,126±13.0%
same,anxiolytic effect (conflict model),rhesus monkeys; intravenously in propylene glycol/water,anxiolytic
"CCOC(=O)c1ncn2c1CN=C(c1ccccc1)c1cc(I)ccc1-2 [HZ 120, Ethyl 8-iodo-6-phenyl-4H-benzo[f]imidazo[1,5-a][1,4]diazepine-3-carboxylate]",Ki,[3]; [10],> 5000 nM
same,Ki,[4]; [11],78.5 nM
same,Ki,[5],32.2 nM
same,Ki,[6]; [12],35 nM
same,Ki,[7]; [13],20.6 nM
"C#Cc1ccc2c(c1)C(c1ccccc1F)=NCc1c(C(=O)OCC)ncn1-2 [JY-XHE-053, 8-Acetyleno-6-(2′-fluorophenyl)-4H-benzo[f]imidazo[1,5-a][1,4]diazepine-3-carboxylate]",protection at the acute phase of chemically induced pain,[1],insignificant
same,"Change (% of Control) ± SEM, T22 Formalin Pain, Acute",[1],98.41 % of Control
same,"Change (% of Control) ± SEM, T22 Formalin Pain, inflammatory",[1],84.58 % of Control
same,"Change (% of Control) ± SEM, T23 Sciatic Ligation",[8],132 ± 7 % of Control
same,"Significance, T23 Sciatic Ligation",[8],yes
same,"analgesic effect, mechanical sensitivity (von Frey) in CCI model",[9]; 8 mg/kg and 30 mg/kg i.p.,significant analgesic effect
same,analgesic effects in the chronic constriction injury model of neuropathic pain,[9],analgesic effects
same,Ki,[3]; [14],22 nM
same,Ki,[4]; [15],34.9 nM
same,Ki,[6]; [16],12.3 nM
same,Ki,[7]; [17],0.671 nM
same,dose at which anxiolytic,rhesus monkeys; intravenously,greater than 0.13 mg/kg
"Cn1ncnc1COc1nn2c(-c3cc(F)ccc3F)nnc2cc1C(C)(C)C [L-838,417]",antihyperalgesic activity in a rat neuropathic pain model,neuropathic pain,good antihyperalgesic activity
same,analgesic effect after repeated administration (tolerance),neuropathic pain,did not diminish
C#Cc1ccc2c(c1)C(c1ccccc1)=NCc1c(-c3nc(CC)no3)ncn1-2 [PS-I-26],Ki,[3]; [10],933 nM
same,Ki,[4]; [11],260 nM
same,Ki,[5],> 5000 nM
same,Ki,[6]; [12],366 nM
same,Ki,[7]; [13],394 nM
"C#Cc1ccc2c(c1)C(c1ccccc1Cl)=NCc1nnc(C)n1-2 [XLI-JY-DMH, 8-Acetyleno-5-(2′-chlorophenyl)-1-methyl-4H-s-triazolo-[4,3-a]-1,4-benzodiazepine]",protection at the acute phase of chemically induced pain,[1],insignificant
same,"Change (% of Control) ± SEM, T22 Formalin Pain, Acute",[1],87.6 % of Control
same,"Change (% of Control) ± SEM, T22 Formalin Pain, inflammatory",[1],111.9 % of Control
same,protection against neuropathic pain caused by sciatic ligation,[8]; T23 sciatic ligation,insignificant
same,"Change (% of Control) ± SEM, T23 Sciatic Ligation",[8],136 % of Control
same,"Significance, T23 Sciatic Ligation",[8],no
same,analgesic effects in the chronic constriction injury model of neuropathic pain,[9],analgesic effects
same,Ki,[3]; [14],3.3 nM
same,Ki,[4]; [15],1.9 nM
same,Ki,"[5]; Table 3, read-out: Binding Affinity at GABAA/α6",> 5000 nM
same,Ki,[6]; [16],0.58 nM
same,Ki,[7]; [17],4.4 nM
CN1CC[C@]23c4c5ccc(O)c4O[C@H]2[C@@H](O)C=C[C@H]3[C@H]1C5 [morphine],analgesic effect after repeated administration (tolerance),neuropathic pain,complete tolerance
